Values quoted from earlier work in US7645795B2, “Method for treating amyotrophic lateral sclerosis” (BodyBio, Inc, priority 2004, dated 2010).

Test system: ALS patients

Compound: Nc1nc2ccc(OC(F)(F)F)cc2s1 [riluzole]
- Extension of lifespan of ALS patients: approximately 3 months
- Hepatic effect: evokes hepatic stress upon elevation of liver enzymes
